{"source": "patent US20200323986A1", "about": "“HYDROPHOBIC ARENESULFONATE SALTS” (Theracaine LLC, priority 2017, published 2020)", "key": {"[1]": {"assay": "Pharmacokinetics of caine anesthetic salt particles after a single subcutaneous dose (plasma drug concentration versus time)", "conditions": "rat; for initial spike in bupivacaine plasma concentration: single subcutaneous dose, 650 μm particles in PEG200, Groups 1 and 2; for delivery of lidocaine over time (plasma lidocaine concentration versus time) / initial spike in plasma lidocaine concentration: in vivo, sc", "experimental": "(§1) The test articles are drug compositions consisting of B-4BrBSA-650, B-35BrBSA-650, L-4BrBSA-650, and L-35BrBSA-650 particles in a polyethylene glycol 200 vehicle (PEG200; Sigma-Aldrich, polyethylene glycol 200 Bioultra). The test articles were prepared by adding a volume of […] to an appropriate weighed amount of test article in a vial, gently mixed, and then applied uniformly via a single subcutaneous dose via incision on the dorsum of female Sprague Dawley rats.\n(§2) Doses were administered via an incision on the dorsal region, as a subcutaneous liquid application (suspension of powder). Each test article was administered at an amount determined by each animal's weight using the calculated mg per kg-bw (bodyweight) as shown in the table below.\n(§3) The vehicle was provided as a liquid in an individual container. […] A volume of 100 μL of vehicle was added to each individual dose, allowed to soak, and shaken occasionally to uniformly mix the particles with the PEG200.\n(§4) For all groups, the test article suspension was applied to the subcutaneum using a plastic spatula. The test article was distributed as evenly as possible. Incisions were closed with staples, and the animals allowed to recover. All animals received analgesia and antibiotic treatment.\n(§5) Cage side observations were performed daily."}, "[2]": {"assay": "Clinical (cage side) observations and body weight after a single subcutaneous dose", "conditions": "rat; for tolerability as administered (summary): particles in PEG200, 114/134/161/193 mg/kg-bw (Groups 1-4)", "experimental": "as §1, §2, §3, §4, §5"}, "[3]": {"assay": "Gross evaluation of dose sites and general gross necropsy at study termination", "assay_type": "in vivo, female Sprague Dawley rats", "conditions": "rat", "experimental": "Sigma-Aldrich, polyethylene glycol 200 Bioultra). […] The test article was distributed as evenly as possible. […] All animals received analgesia and antibiotic treatment. Cage side observations were performed daily."}, "[4]": {"conditions": "animals that lost weight, over the course of the study"}, "[5]": {"conditions": "five animals per group, single subcutaneous dose"}, "[6]": {"conditions": "group average, single subcutaneous dose"}, "[7]": {"conditions": "at study termination (after 96 h sampling)"}}}
{"smiles": "CCCCN1CCCCC1C(=O)Nc1c(C)cccc1C.Cc1c(Br)cc(S(=O)(=O)O)cc1Br", "note": "(centres unmarked) [B-35BrBSA-650, Bupivacaine 3,5-dibromo-4-methybenzenesulfonate salt]", "values": [{"measurement": "duration of delivery of bupivacaine (plasma bupivacaine concentration versus time)", "setting": "[1]; single subcutaneous dose via dorsal incision, 650 μm particles in 100 μL PEG200, 114 (Group 1) / 134 (Group 2) mg/kg-bw, plasma to 96 h, FIGS. 1-2", "value": "greater duration of delivery of bupivacaine compared to test article 1"}, {"measurement": "initial spike in bupivacaine plasma concentration", "setting": "[1]; FIGS. 1-2", "value": "without the initial spike in bupivacaine plasma concentration"}, {"measurement": "weight loss", "setting": "[2]; [4]", "value": "less than 5 % total body weight"}, {"measurement": "animals that lost weight over the course of the study", "setting": "[2]; [5]", "value": "two out of five"}, {"measurement": "group mean body weight change at the end of the study", "setting": "[2]; [6]", "value": 1, "unit": "gram"}, {"measurement": "tolerability as administered (summary)", "setting": "[2]; single subcutaneous dose", "value": "well tolerated"}, {"measurement": "encapsulation at dose site", "setting": "[3]; at study termination", "value": "No encapsulation was present"}, {"measurement": "other dose site findings (hematoma, unknown material)", "setting": "[3]; at study termination", "value": "A small hematoma was present in Animal #7"}, {"measurement": "vascularization surrounding the incision sites (dose site observation)", "setting": "[3]; at study termination", "value": "very slight to slight vascularization"}, {"measurement": "residual test article visible at dose site", "setting": "[3]; [7]", "value": "Small areas of residual test article were visible at or near the incision site in all animals"}]}
{"smiles": "CCCCN1CCCCC1C(=O)Nc1c(C)cccc1C.O=S(=O)(O)c1ccc(Br)cc1", "note": "(centres unmarked) [Example B-4BrBSA-650, Bupivacaine 4-bromobenzenesulfonate salt]", "values": [{"measurement": "initial spike in bupivacaine plasma concentration", "setting": "[1]; FIGS. 1-2", "value": "initial spike in bupivacaine plasma concentration exhibited by test article 1"}, {"measurement": "weight loss", "setting": "[2]; [4]", "value": "less than 5 % total body weight"}, {"measurement": "animals that lost weight over the course of the study", "setting": "[2]; [5]", "value": "two out of five"}, {"measurement": "group mean body weight change at the end of the study", "setting": "[2]; [6]", "value": 4, "unit": "gram"}, {"measurement": "tolerability as administered (summary)", "setting": "[2]; single subcutaneous dose", "value": "well tolerated"}, {"measurement": "encapsulation at dose site", "setting": "[3]; at study termination", "value": "No additional encapsulation or residual test article was visible"}, {"measurement": "other dose site findings (hematoma, unknown material)", "setting": "[3]; at study termination", "value": "Hematomas were present in Animals #2 and #4, with encapsulation of clotted blood in Animal #4"}, {"measurement": "vascularization surrounding the incision sites (dose site observation)", "setting": "[3]; at study termination", "value": "very slight to slight vascularization"}, {"measurement": "residual test article visible at dose site", "setting": "[3]; [7]", "value": "No additional encapsulation or residual test article was visible"}]}
{"smiles": "CCN(CC)CC(=O)Nc1c(C)cccc1C.O=S(=O)(O)c1ccc(Br)cc1", "note": "[Example L-4BrBSA-650, Lidocaine 4-bromobenzenesulfonate salt]", "values": [{"measurement": "delivery of lidocaine over time (plasma lidocaine concentration versus time)", "setting": "[1]", "value": "at least 24 hours"}, {"measurement": "initial spike in plasma lidocaine concentration", "setting": "[1]", "value": "initial spike in plasma lidocaine concentration exhibited by test article 3"}, {"measurement": "weight loss", "setting": "[2]; in vivo", "value": "less than 5 % total body weight"}, {"measurement": "animals that lost weight over the course of the study", "setting": "[2]; in vivo, sc", "value": "four out of five"}, {"measurement": "group mean body weight change at the end of the study", "setting": "[2]; in vivo, sc", "value": "−1", "unit": "gram"}, {"measurement": "survival", "setting": "[2]; single subcutaneous dose, to scheduled euthanasia (96 h study)", "value": "all animals survived until scheduled euthanasia"}, {"measurement": "encapsulation size at dose site", "setting": "[3]; in vivo", "value": "0.5-3 cm"}, {"measurement": "other dose site findings (hematoma, unknown material)", "setting": "[3]; in vivo", "value": "Areas of an unknown brown material were present in Animal #13"}, {"measurement": "residual test article visible at dose site", "setting": "[3]; in vivo", "value": "No residual test article was visible"}, {"measurement": "vascularization surrounding the incision sites (dose site observation)", "setting": "[3]; in vivo", "value": "moderate to severe vascularization"}]}
{"smiles": "CCN(CC)CC(=O)Nc1c(C)cccc1C.Cc1c(Br)cc(S(=O)(=O)O)cc1Br", "note": "[L-35BrBSA-650, Lidocaine 3,5-dibromo-4-methybenzenesulfonate salt]", "values": [{"measurement": "delivery of lidocaine over time (plasma lidocaine concentration versus time)", "setting": "[1]", "value": "at least 24 hours"}, {"measurement": "initial spike in plasma lidocaine concentration", "setting": "[1]", "value": "avoids the initial spike in plasma lidocaine concentration"}, {"measurement": "weight loss", "setting": "[2]; in vivo", "value": "less than 5 % total body weight"}, {"measurement": "animals that lost weight over the course of the study", "setting": "[2]; in vivo, sc", "value": "two out of five"}, {"measurement": "group mean body weight change at the end of the study", "setting": "[2]; in vivo, sc", "value": 1, "unit": "gram"}, {"measurement": "tolerability as administered (summary)", "setting": "[2]; single subcutaneous dose", "value": "well tolerated"}, {"measurement": "encapsulation at dose site", "setting": "[3]; in vivo", "value": "No residual test article or encapsulation was visible"}, {"measurement": "residual test article visible at dose site", "setting": "[3]; in vivo", "value": "No residual test article or encapsulation was visible"}, {"measurement": "vascularization surrounding the incision sites (dose site observation)", "setting": "[3]; in vivo", "value": "very slight to moderate vascularization"}]}
